Results from US8268848B2, “Cyclopropane compound” (Eisai R&D Management Co., Ltd., priority 2010, dated 2012).
Where two headings read alike, the source gives them in different places.

Columns and labels:
OX1 = target: T1, OX1 (Homo sapiens, UniProt O43613); test: Measurement of orexin receptor-binding ability ([125I]-OX-A, cell membranes, OX1); set-up: expressed in transfected cells; host or cells: CHO cells (membrane preparation)
T1 sequence (O43613 1-425): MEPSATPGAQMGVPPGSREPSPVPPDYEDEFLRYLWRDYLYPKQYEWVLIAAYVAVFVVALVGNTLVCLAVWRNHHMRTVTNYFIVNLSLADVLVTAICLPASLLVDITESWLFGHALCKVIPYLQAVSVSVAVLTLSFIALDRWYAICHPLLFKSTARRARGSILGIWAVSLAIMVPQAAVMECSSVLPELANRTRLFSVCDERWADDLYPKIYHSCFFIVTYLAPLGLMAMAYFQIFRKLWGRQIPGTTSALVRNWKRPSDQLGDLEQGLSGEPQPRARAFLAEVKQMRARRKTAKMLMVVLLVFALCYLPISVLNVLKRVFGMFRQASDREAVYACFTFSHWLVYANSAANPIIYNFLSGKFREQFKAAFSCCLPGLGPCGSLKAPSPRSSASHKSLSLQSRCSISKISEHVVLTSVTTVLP

OX2 = target: T2, OX2 (Homo sapiens, UniProt O43614); test: Measurement of orexin receptor-binding ability ([125I]-OX-A, cell membranes, OX2); set-up: expressed in transfected cells; host or cells: CHO cells (membrane preparation); details: membranes of recombinant CHO cells expressing OX2, 0.2 nM [125I]-OX-A
T2 sequence (O43614 1-444): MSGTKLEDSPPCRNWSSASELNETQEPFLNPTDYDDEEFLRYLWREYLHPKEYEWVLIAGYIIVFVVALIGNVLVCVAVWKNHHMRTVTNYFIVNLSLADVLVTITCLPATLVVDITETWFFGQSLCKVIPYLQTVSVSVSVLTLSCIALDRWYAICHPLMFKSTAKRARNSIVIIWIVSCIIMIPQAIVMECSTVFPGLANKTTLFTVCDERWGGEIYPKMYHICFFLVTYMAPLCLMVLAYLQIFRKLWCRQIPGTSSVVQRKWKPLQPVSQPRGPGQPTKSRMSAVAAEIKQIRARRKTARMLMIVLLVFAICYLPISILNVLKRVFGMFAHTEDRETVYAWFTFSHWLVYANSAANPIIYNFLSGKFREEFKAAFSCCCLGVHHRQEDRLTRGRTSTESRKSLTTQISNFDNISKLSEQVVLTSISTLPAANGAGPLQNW

[1] = membranes of recombinant CHO cells expressing OX1, 0.2 nM [125I]-OX-A, read-out: OX1 (IC50)

Structure (SMILES)	IC50 (OX1)	IC50 (OX2; OX2 (IC50) nM)	IC50 (OX1; [1])	IC50 (OX2; read-out: OX2 (IC50))
Cc1ncc(OC[C@@]2(c3cccc(F)c3)C[C@H]2C(=O)Nc2cc(Cl)ccn2)c(C)n1 [Example 85, (1R,2S)-N-(4-chloropyridin-2-yl)-2-{[(2,4-dimethylpyrimidin-5-yl)oxy]methyl}-2-(3-fluorophenyl)cyclopropanecarboxamide]	4 nM	5 nM		
Cc1ncc(OC[C@@]2(c3cccc(F)c3)C[C@H]2C(=O)Nc2ncc(F)cc2O)c(C)n1 [Example 319, (1R,2S)-2-{{[(2,4-dimethylpyrimidin-5-yl)oxy]methyl}}-N-(5-fluoro-3-hydroxypyridin-2-yl)-2-(3-fluorophenyl)cyclopropanecarboxamide]	> 200 nM	128 nM		
Cc1ncc(OC[C@@]2(c3ccc(F)c(F)c3)C[C@H]2C(=O)Nc2ccccn2)c(C)n1 [Example 166, (1R,2S)-2-(3,4-difluorophenyl)-2-{[(2,4-dimethylpyrimidin-5-yl)oxy]methyl}-N-(pyridin-2-yl)cyclopropanecarboxamide]	50 nM	7 nM		
Cc1ncc(OC[C@@]2(c3cccc(F)c3)C[C@H]2C(=O)Nc2ccc(F)cc2)c(C)n1 [Example 92, (1R,2S)-2-{[(2,4-dimethylpyrimidin-5-yl)oxy]methyl}-2-(3-fluorophenyl)-N-(4-fluorophenyl)cyclopropanecarboxamide]	23 nM	8 nM		
COCc1nc(C)ncc1OC[C@@]1(c2ccc(F)c(F)c2)C[C@H]1C(=O)Nc1ccccn1 [Example 211, (1R,2S)-2-(3,4-difluorophenyl)-2-{[(4-methoxymethyl-2-methylpyrimidin-5-yl)oxy]methyl}-N-(pyridin-2-yl)cyclopropanecarboxamide]	20 nM	4 nM		
Cc1ncc(OC[C@@]2(c3cccc(F)c3)C[C@H]2C(=O)Nc2ccc(F)c(O)n2)c(C)n1 [Example 325, (1R,2S)-2-{[(2,4-dimethylpyrimidin-5-yl)oxy]methyl}-N-(5-fluoro-6-hydroxypyridin-2-yl)-2-(3-fluorophenyl)cyclopropanecarboxamide]	158 nM	20 nM		
Cc1ncc(OC[C@@]2(c3ccc(F)c(F)c3)C[C@H]2C(=O)Nc2ccc(F)cc2F)c(C)n1 [Example 171]			43 nM	11 nM
Cc1ncc(OC[C@@]2(c3ccccc3)C[C@H]2C(=O)Nc2cccc(CC#N)c2)c(C)n1 [Example 39, (1R,2S)-N-[3-(cyanomethyl)phenyl]-2-{[(2,4-dimethylpyrimidin-5-yl)oxy]methyl}-2-phenylcyclopropanecarboxamide]			354 nM	6 nM
Cc1ncc(OC[C@@]2(c3ccccc3)C[C@H]2c2nc3cc(F)ccc3[nH]2)c(C)n1 [Example 303, 2-{(1R,2S)-2-{[(2,4-dimethylpyrimidin-5-yl)oxy]methyl}-2-phenylcyclopropyl}-5-fluoro-1H-benzimidazole]			75 nM	3 nM
Cc1ncc(OC[C@@]2(c3ccccc3)C[C@H]2C(=O)Nc2cnc(Br)c(C)c2)c(C)n1 [Example 58]			1930 nM	89 nM
COCc1cc(NC(=O)[C@@H]2C[C@@]2(COc2cnc(C)nc2C)c2ccccc2)ncc1F [Example 71, (1R,2S)-2-{[(2,4-dimethylpyrimidin-5-yl)oxy]methyl}-N-[5-fluoro-4-(methoxymethyl)pyridin-2-yl]-2-phenylcyclopropanecarboxamide]			52 nM	5.1 nM
COCc1nc(C)ncc1OC[C@@]1(c2ccc(F)cc2)C[C@H]1C(=O)Nc1ccc(F)cc1 [Example 203, (1R,2S)-N,2-bis(4-fluorophenyl)-2-{[(4-methoxymethyl-2-methylpyrimidin-5-yl)oxy]methyl}cyclopropanecarboxamide]			215 nM	8 nM
COCc1nc(C)ncc1OC[C@@]1(c2cc(F)cc(F)c2)C[C@H]1C(=O)Nc1ccc(F)cc1 [Example 219, (1R,2S)-2-(3,5-difluorophenyl)-N-(4-fluorophenyl)-2-{[(4-methoxymethyl-2-methylpyrimidin-5-yl)oxy]methyl}cyclopropanecarboxamide]			10 nM	3 nM
Cc1ncc(OCC2(c3cccnc3)CC2C(=O)Nc2ccc(Cl)cn2)c(C)n1 (stereo not drawn) [Example 260, N-(5-chloropyridin-2-yl)-2-{[(2,4-dimethylpyrimidin-5-yl)oxy]methyl}-2-pyridin-3-ylcyclopropanecarboxamide]			> 2000 nM	70 nM
Cc1ncc(OC[C@@]2(c3cccc(F)c3)C[C@H]2C(=O)Nc2ccc(F)c(F)c2)c(C)n1 [Example 84, (1R,2S)-N-(3,4-difluorophenyl)-2-{[(2,4-dimethylpyrimidin-5-yl)oxy]methyl}-2-(3-fluorophenyl)cyclopropanecarboxamide]	6 nM	3 nM		
Cc1ncc(OCC2(c3ccccc3Cl)CC2C(=O)Nc2ccc(F)cn2)c(C)n1 (stereo not drawn) [Example 151]	102 nM	25 nM		
Cc1ncc(OC[C@@]2(c3ccccc3)C[C@H]2C(=O)Nc2cccc(Cl)c2)c(C)n1 [Example 24, (1R,2S)-N-(3-chlorophenyl)-2-{[(2,4-dimethylpyrimidin-5-yl)oxy]methyl}-2-phenylcyclopropanecarboxamide]			28 nM	7 nM

Structure (SMILES)	IC50 (OX1)	IC50 (OX2; OX2 (IC50) nM)	IC50 (OX1; [1])	IC50 (OX2; read-out: OX2 (IC50))
Cc1ncc(OC[C@@]2(c3cccc(F)c3)C[C@H]2C(=O)Nc2ccnc(F)c2)c(C)n1 [Example 97]	105 nM	21 nM		
Cc1ncc(OC[C@@]2(c3ccccc3)C[C@H]2C(=O)Nc2nc(C)c(C)s2)c(C)n1 [Example 4]			55 nM	38 nM
COCc1nc(C)ncc1OC[C@@]1(c2cc(F)cc(OC)c2)C[C@H]1C(=O)Nc1cc(C)c(F)cn1 [Example 234, (1R,2S)-2-(3-fluoro-5-methoxyphenyl)-N-(5-fluoro-4-methylpyridin-2-yl)-2-{[(4-methoxymethyl-2-methylpyrimidin-5-yl)oxy]methyl}cyclopropanecarboxamide]			< 2 nM	4 nM
Cc1ncc(OC[C@@]2(c3ccccc3)C[C@H]2C(=O)Nc2ccc(F)c(Cl)c2)c(C)n1 [Example 32, (1R,2S)-N-(3-chloro-4-fluorophenyl)-2-{[(2,4-dimethylpyrimidin-5-yl)oxy]methyl}-2-phenylcyclopropanecarboxamide]			15 nM	3.5 nM
Cc1ncc(OC[C@@]2(c3cccc(F)c3)C[C@H]2C(=O)Nc2ccc(Br)cn2)c(C)n1 [Example 279]	24 nM	3.2 nM		
Cc1ncc(OC[C@@]2(c3cccc(F)c3)C[C@H]2C(=O)Nc2ccc(CF)cn2)c(C)n1 [Example 282]	21 nM	2.4 nM		
Cc1ncc(OCC2(c3ccc(F)cc3)CC2C(=O)Nc2cccnc2)c(C)n1 (stereo not drawn) [Example 103]			2940 nM	96 nM
Cc1cccc(C2(COc3cnc(C)nc3C)CC2C(=O)Nc2cccnc2)c1 (stereo not drawn) [Example 177]			334 nM	84 nM
Cc1ncc(N(C)C[C@@]2(c3cccc(F)c3)C[C@H]2C(=O)Nc2ccc(F)cc2)c(C)n1 [Example 294]			> 200 nM	14 nM
COCc1nc(C)ncc1OC[C@@]1(c2ccc(F)cc2)C[C@H]1C(=O)Nc1ccc(F)c(F)c1 [Example 207, (1R,2S)-N-(3,4-difluorophenyl)-2-(4-fluorophenyl)-2-{[(4-methoxymethyl-2-methylpyrimidin-5-yl)oxy]methyl}cyclopropanecarboxamide]			110 nM	9 nM
COCc1cc(NC(=O)[C@@H]2C[C@@]2(COc2cnc(C)nc2C)c2ccc(F)cc2)ncc1F [Example 109, (1R,2S)-2-{[(2,4-dimethylpyrimidin-5-yl)oxy]methyl}-N-(5-fluoro-4-methoxymethylpyridin-2-yl)-2-(4-fluorophenyl)cyclopropanecarboxamide]	12 nM	5.8 nM		
Cc1ncc(OCC2(c3ccccc3F)CC2C(=O)Nc2cccnc2)c(C)n1 (stereo not drawn) [Example 276]	3210 nM	76 nM		
Cc1ncc(OCC2(c3ccccc3Cl)CC2C(=O)Nc2ccc(C#N)cn2)c(C)n1 (stereo not drawn) [Example 153]	447 nM	32 nM		
Cc1ccc(C2(COc3cnc(C)nc3C)CC2C(=O)Nc2ccc(Cl)cn2)cc1 (stereo not drawn) [Example 175]	62 nM	35 nM		
Cc1ncc(OC[C@@]2(c3cccc(F)c3)C[C@H]2C(=O)Nc2ccccn2)c(C)n1 [Example 87]	43 nM	10 nM		
COc1cc(F)cc([C@]2(COc3cnc(C)nc3C)C[C@H]2C(=O)Nc2ccc(F)cn2)c1 [Example 254]	109 nM	11 nM		
